# Experimental data as given in patent US5637625A, “Propofol microdroplet formulations” (Research Triangle Pharmaceuticals Ltd., priority 1996, dated 1997).
# Tests used:
# laboratory rats = assay: Efficacy for general anesthesia in rats (i.v. tail vein), with mortality; type: in vivo, female CD laboratory rats; conditions: 20-21 mg/kg
# Procedure: Diprivan® (Diprivan® 1%, Injection propofol, 10 mg/ml, Emulsion for I.V. Administration, Stuart Pharmaceuticals) was purchased. It is described by the manufacturer as a sterile, nonpyrogenic emulsion containing 10 mg/mL propofol, 100 mg/ml soybean oil, 12 mg/mL lecithin in an aqueous vehicle. It was maintained at room temperature as described by the manufacturer. Samples were taken using aseptic technique.
# Lecithin-coated propofol microdroplets containing 6.8% propofol and Diprivan® were injected into the tail veins of 150 gram female CD laboratory rats (Charles River Laboratories, Wilmington, Mass.) restrained in a Decapicone® (Braintree Scientific, Braintree, Mass.). The volumes of 6.8% (w/v) microdroplet propofol injected were 10, 20, 30 or 50 μL. The injections were accomplished in 2-3 seconds. Volumes of 1% Diprivan® injections were 100, 200, 300 or 500 μL. The injections were accomplished in 5-15 seconds. The animals were observed during the injections, and the time required for loss of consciousness ("time to unconsciousness") was recorded. Then the animals were removed from the Decapicone® and placed on their sides and were tested for startle response to a loud clap. […] The time to regain startle response ("time to startle response") was recorded. The time to recover the righting response, indicated by spontaneous attempt to stand, was also measured. […]
# [1] = cited from earlier work
# [2] = pure oily state; cited from earlier work
smiles,measurement,setting,value
"CC(C)c1cccc(C(C)C)c1O [Propofol, 2,6-diisopropylphenol]",Mortality (in words),laboratory rats,significant mortality
same,Water solubility,[1],water-insoluble
same,Irritancy,[2],irritant
